Experiment [1] deals with T1, p110 delta (Homo sapiens, UniProt O00329).
T1 construct: purchased Upstate Group, Millipore; Dundee, UK
Nature of the experiment: PI3K Isoform Inhibition Assay, p110 delta. The class given is biochemical. Particulars: PI3K isoform inhibition assay of Example 901. As for the experimental part:
(§1) PI3K enzymatic activity was assayed by measuring the amount of product phosphatidylinositol […] (PIP3) formed from substrate 4,5 phosphatidylinositol 4,5-phosphate (PIP2) using a fluorescence polarization displacement assay. The decrease in fluorescence polarization of a fluorescent PIP3 probe is measured as it is displaced from a PIP3-binding protein GRP-1 detector by PI3K-catalyzed product. […] The kinase reactions were initiated by the addition of 40 ng/mL p110α/p85α, 300 ng/mL p110β/p85α, 40 ng/mL p110γ, or 40 ng/mL […] (Upstate Group, Millipore; Dundee, UK), and 10 μM PIP2 (Echelon Biosciences) to the wells. […] After 60 minutes of incubation at room temperature to allow equilibration of labeled and unlabeled PIP3 binding, the parallel and perpendicular components of the fluorescence emissions from each sample were measured at an excitation wavelength of 530 nm and an emission wavelength of 590 nm using an Envision fluorescent plate reader with a rhodamine filter (PerkinElmer Life and Analytical Sciences; Wellesley, Mass.). The assay is capable of detecting 0.1-2.0 μM PIP3 product. The IC50 values were obtained by fitting the dose-dependent inhibition data to a 4-parameter equation using Assay Explorer software (MDL, San Ramon, Calif.).
(§2) The Formula I compound was serially diluted in 100% DMSO. The kinase reaction was incubated for 1 h at room temperature, and the reaction was terminated by the addition of PBS. IC50 values were subsequently determined using sigmoidal dose-response curve fit (variable slope).
The four Class I PI 3-kinases are cloned into baculovirus vectors as follows: […]

Experiment [2] addresses T2, p110 alpha (Homo sapiens, UniProt P42336).
T2 construct: purchased Upstate Group, Millipore; Dundee, UK
Nature of the experiment: PI3K Isoform Inhibition Assay, p110 alpha (delta/alpha selectivity). The conditions noted are these: ratio of biochemical IC50 values. The procedure: as §1, §2
The same protocol may be used to establish IC50 values for p110α (alpha) PI3K binding. […]

Molecules are shown by their SMILES.

T1 sequence (O00329 whole entry): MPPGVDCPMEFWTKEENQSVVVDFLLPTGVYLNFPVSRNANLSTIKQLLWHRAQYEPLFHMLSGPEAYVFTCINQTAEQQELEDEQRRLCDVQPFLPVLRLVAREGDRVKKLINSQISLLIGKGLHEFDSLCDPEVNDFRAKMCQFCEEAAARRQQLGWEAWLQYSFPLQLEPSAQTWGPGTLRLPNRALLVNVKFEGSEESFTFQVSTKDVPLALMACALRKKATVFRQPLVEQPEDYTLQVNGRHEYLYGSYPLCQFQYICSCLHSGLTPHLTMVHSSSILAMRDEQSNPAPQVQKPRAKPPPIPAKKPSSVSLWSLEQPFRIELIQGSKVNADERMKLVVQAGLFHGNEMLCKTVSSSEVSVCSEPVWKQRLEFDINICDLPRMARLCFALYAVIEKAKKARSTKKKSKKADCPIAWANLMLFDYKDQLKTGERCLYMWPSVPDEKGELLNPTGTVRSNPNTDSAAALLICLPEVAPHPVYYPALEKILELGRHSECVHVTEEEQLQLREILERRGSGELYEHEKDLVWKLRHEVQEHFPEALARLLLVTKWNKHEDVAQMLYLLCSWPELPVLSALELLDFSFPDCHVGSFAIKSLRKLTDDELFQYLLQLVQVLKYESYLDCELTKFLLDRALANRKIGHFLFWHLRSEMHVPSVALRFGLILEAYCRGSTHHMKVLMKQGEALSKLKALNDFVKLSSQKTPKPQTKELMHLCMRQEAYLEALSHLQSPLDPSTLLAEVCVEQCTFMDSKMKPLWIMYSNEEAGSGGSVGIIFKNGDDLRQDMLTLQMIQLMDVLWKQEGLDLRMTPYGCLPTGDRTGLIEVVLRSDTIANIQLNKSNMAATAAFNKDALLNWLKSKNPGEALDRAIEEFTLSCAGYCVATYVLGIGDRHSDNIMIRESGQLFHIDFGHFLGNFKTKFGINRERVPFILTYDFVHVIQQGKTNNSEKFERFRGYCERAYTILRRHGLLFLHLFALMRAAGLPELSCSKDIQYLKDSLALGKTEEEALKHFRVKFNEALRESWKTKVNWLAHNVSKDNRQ
T1 sequence (P27986 whole entry partner): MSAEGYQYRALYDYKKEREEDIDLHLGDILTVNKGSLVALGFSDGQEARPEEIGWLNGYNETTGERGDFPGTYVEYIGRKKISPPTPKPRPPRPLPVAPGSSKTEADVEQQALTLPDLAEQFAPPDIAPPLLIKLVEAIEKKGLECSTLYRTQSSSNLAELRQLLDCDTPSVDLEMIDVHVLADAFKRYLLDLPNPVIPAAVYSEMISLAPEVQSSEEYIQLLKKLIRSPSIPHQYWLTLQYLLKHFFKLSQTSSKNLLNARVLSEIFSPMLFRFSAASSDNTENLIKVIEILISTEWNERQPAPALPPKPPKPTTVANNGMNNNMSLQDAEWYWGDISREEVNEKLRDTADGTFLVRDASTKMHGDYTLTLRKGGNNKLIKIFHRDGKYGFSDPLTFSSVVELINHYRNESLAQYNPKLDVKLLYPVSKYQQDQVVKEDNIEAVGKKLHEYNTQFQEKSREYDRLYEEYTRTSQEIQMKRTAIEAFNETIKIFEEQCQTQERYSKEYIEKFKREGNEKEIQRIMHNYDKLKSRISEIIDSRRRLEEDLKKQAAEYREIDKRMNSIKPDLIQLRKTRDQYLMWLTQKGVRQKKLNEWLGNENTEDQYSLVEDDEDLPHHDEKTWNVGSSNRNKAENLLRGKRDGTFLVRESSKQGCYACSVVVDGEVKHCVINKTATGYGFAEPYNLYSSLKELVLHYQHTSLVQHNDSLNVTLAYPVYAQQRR
T2 sequence (P42336 whole entry): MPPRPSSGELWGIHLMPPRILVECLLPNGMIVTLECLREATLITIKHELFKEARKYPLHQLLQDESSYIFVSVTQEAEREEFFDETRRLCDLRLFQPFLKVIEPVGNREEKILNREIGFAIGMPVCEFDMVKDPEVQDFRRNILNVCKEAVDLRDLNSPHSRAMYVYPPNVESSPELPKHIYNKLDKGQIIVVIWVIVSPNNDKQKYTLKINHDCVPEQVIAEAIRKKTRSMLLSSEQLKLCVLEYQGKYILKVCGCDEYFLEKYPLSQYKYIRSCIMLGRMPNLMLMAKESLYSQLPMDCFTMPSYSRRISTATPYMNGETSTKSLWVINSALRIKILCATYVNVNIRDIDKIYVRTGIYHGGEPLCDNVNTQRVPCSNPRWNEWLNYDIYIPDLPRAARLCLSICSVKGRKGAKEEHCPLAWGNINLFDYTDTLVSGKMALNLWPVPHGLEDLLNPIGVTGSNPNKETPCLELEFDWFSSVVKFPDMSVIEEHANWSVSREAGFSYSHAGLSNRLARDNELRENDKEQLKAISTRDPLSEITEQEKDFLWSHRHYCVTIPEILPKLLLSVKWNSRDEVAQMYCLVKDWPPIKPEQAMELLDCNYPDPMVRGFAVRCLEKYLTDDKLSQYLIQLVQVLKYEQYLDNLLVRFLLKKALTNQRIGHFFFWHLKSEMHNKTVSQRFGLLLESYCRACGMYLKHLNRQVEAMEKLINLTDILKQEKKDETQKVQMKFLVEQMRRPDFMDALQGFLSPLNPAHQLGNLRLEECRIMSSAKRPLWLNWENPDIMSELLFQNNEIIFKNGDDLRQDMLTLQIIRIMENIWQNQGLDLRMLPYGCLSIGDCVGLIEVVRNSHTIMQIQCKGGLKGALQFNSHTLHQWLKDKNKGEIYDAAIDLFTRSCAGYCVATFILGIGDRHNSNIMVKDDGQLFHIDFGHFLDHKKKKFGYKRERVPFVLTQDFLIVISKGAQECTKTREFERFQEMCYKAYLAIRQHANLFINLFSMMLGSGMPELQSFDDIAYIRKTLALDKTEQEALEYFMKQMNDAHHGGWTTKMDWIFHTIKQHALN
T2 sequence (P27986 whole entry partner): as the sequence (P27986 whole entry partner) above

Turning to `Cc1nc2ccccc2n1-c1nc(N2CCOCC2)c2nc(CN3CCC(C(C)(C)O)CC3)ccc2n1` [Compound 101, 2-(1-((2-(2-methyl-1H-benzo[d]imidazol-1-yl)-4-morpholinopyrido[3,2-d]pyrimidin-6-yl)methyl)piperidin-4-yl)propan-2-ol], in experiment [1], the IC50 (usually the concentration that gives 50% inhibition) was 12.5 nM. The “IC50 p110 alpha/IC50 p110 delta” value in experiment [2] is 33.
The like results for `CC(C)(O)C1CCN(Cc2ccc3nc(-n4c(C5CC5)nc5ccccc54)nc(N4CCOCC4)c3n2)CC1` [Compound 102, 2-(1-((2-(2-cyclopropyl-1H-benzo[d]imidazol-1-yl)-4-morpholinopyrido[3,2-d]pyrimidin-6-yl)methyl)piperidin-4-yl)propan-2-ol] were, in that order, 7.94 nM and 71.
Take `Cc1oc2ccccc2c1-c1nc(N2CCOCC2)c2nc(CN3CCC(C(C)(C)O)CC3)ccc2n1` [Compound 103, 2-(1-((2-(2-methylbenzofuran-3-yl)-4-morpholinopyrido[3,2-d]pyrimidin-6-yl)methyl)piperidin-4-yl)propan-2-ol]: the midpoint of inhibition in experiment [1], the IC50, lay at 10.5 nM. Moreover, in experiment [2], the “IC50 p110 alpha/IC50 p110 delta” value came to 200.
For `CCn1c(=O)c2ccccc2n1-c1nc(N2CCOCC2)c2nc(CN3CCC(C(C)(C)O)CC3)ccc2n1` [Compound 104, 2-ethyl-1-(6-((4-(2-hydroxypropan-2-yl)piperidin-1-yl)methyl)-4-morpholinopyrido[3,2-d]pyrimidin-2-yl)-1H-indazol-3(2H)-one], half-maximal inhibition in experiment [1] (IC50) was put at 11.8 nM. Moreover, in experiment [2], the “IC50 p110 alpha/IC50 p110 delta” value came out at 83.
In turn, `Cc1cc(Nc2nc(N3CCOCC3)c3nc(CN4CCC(C(C)(C)O)CC4)ccc3n2)n[nH]1` [Compound 106, 2-(1-((2-(5-methyl-1H-pyrazol-3-ylamino)-4-morpholinopyrido[3,2-d]pyrimidin-6-yl)methyl)piperidin-4-yl)propan-2-ol] had an IC50 in experiment [1] of 66.9 nM. Besides, the “IC50 p110 alpha/IC50 p110 delta” value in experiment [2] was 31.
In turn, `CC(C)(O)C1CCN(Cc2ccc3nc(-c4cnc(N)nc4)nc(N4CCOCC4)c3n2)CC1` [Compound 107, 2-(1-((2-(2-aminopyrimidin-5-yl)-4-morpholinopyrido[3,2-d]pyrimidin-6-yl)methyl)piperidin-4-yl)propan-2-ol] displayed an IC50 in experiment [1] of 2.57 nM. Besides, the “IC50 p110 alpha/IC50 p110 delta” value in experiment [2] is 5.4.
For `OCc1ccc2nc(-c3c(F)ccc4[nH]ccc34)nc(N3CCOCC3)c2n1` [Compound 108, (2-(5-fluoro-1H-indol-4-yl)-4-morpholinopyrido[3,2-d]pyrimidin-6-yl)methanol], in that order: 26.5 nM and 13.5.
For `CC(C)(O)C1CCN(Cc2ccc3nc(-c4cccc5[nH]ccc45)nc(N4CCOCC4)c3n2)CC1` [Compound 109, 2-(1-((2-(1H-indol-4-yl)-4-morpholinopyrido[3,2-d]pyrimidin-6-yl)methyl)piperidin-4-yl)propan-2-ol], in that order: 2.82 nM and more than 350.
For `CC(C)(O)C1CCN(Cc2ccc3nc(-c4cccc5[nH]ncc45)nc(N4CCOCC4)c3n2)CC1` [Compound 110, 2-(1-((2-(1H-indazol-4-yl)-4-morpholinopyrido[3,2-d]pyrimidin-6-yl)methyl)piperidin-4-yl)propan-2-ol], in that order: 6.32 nM and 21.
`Fc1ccc2[nH]ccc2c1-c1nc(N2CCOCC2)c2nc(CN3CC(C4CCOCC4)C3)ccc2n1` [Compound 111, 4-(2-(5-fluoro-1H-indol-4-yl)-6-((3-(tetrahydro-2H-pyran-4-yl)azetidin-1-yl)methyl)pyrido[3,2-d]pyrimidin-4-yl)morpholine] yielded an IC50 in experiment [1] of 5.32 nM. For the same compound, in experiment [2], the “IC50 p110 alpha/IC50 p110 delta” value is given as 281.
With `CC(C)c1nc2ccccc2n1-c1nc(N2CCOCC2)c2nc(CN3CC(C4CCOCC4)C3)ccc2n1` [Compound 113, 4-(2-(2-isopropyl-1H-benzo[d]imidazol-1-yl)-6-((3-(tetrahydro-2H-pyran-4-yl)azetidin-1-yl)methyl)pyrido[3,2-d]pyrimidin-4-yl)morpholine], the IC50 in experiment [1] came out at 8.52 nM. Further, the “IC50 p110 alpha/IC50 p110 delta” value in experiment [2] is listed as 28.4.
Regarding `CO[C@H](C)c1nc2ccccc2n1-c1nc(N2CCOCC2)c2nc(CN3CCC(C(C)(C)O)CC3)ccc2n1` [Compound 115, (R)-2-(1-((2-(2-(1-methoxyethyl)-1H-benzo[d]imidazol-1-yl)-4-morpholinopyrido[3,2-d]pyrimidin-6-yl)methyl)piperidin-4-yl)propan-2-ol], half-maximal inhibition in experiment [1] (IC50) was put at 7.11 nM. Also, the “IC50 p110 alpha/IC50 p110 delta” value in experiment [2] is given as 58.
For the compound `Cc1nc(N)ccc1-c1nc(N2CCOCC2)c2nc(CN3CCC(C(C)(C)O)CC3)ccc2n1` [Compound 116, 2-(1-((2-(6-amino-2-methylpyridin-3-yl)-4-morpholinopyrido[3,2-d]pyrimidin-6-yl)methyl)piperidin-4-yl)propan-2-ol], it took 9.33 nM to reach half-maximal inhibition in experiment [1] (IC50). Moreover, the “IC50 p110 alpha/IC50 p110 delta” value in experiment [2] came out at 43.
For `COC(=O)C(C)(C)N1CC(Cc2ccc3nc(-n4c(C(C)C)nc5ccccc54)nc(N4CCOCC4)c3n2)C1` [Compound 117, methyl 2-(3-((2-(2-isopropyl-1H-benzo[d]imidazol-1-yl)-4-morpholinopyrido[3,2-d]pyrimidin-6-yl)methyl)azetidin-1-yl)-2-methylpropanoate], in that order: 5.09 nM and 37.
For `CC(C)(O)C1CCN(C(=O)c2ccc3nc(-c4c(F)ccc5[nH]ccc45)nc(N4CCOCC4)c3n2)CC1` [Compound 118, (2-(5-fluoro-1H-indol-4-yl)-4-morpholinopyrido[3,2-d]pyrimidin-6-yl)(4-(2-hydroxypropan-2-yl)piperidin-1-yl)methanone], in that order: 13 nM and 77.
The like results for `CC(C)c1nc2ccccc2n1-c1nc(N2CCOCC2)c2nc(C(=O)N3CCC(C(C)(C)O)CC3)ccc2n1` [Compound 119, (4-(2-hydroxypropan-2-yl)piperidin-1-yl)(2-(2-isopropyl-1H-benzo[d]imidazol-1-yl)-4-morpholinopyrido[3,2-d]pyrimidin-6-yl)methanone] were, in that order, 87.8 nM and 15.
`CC(F)(F)c1nc2ccccc2n1-c1nc(N2CCOCC2)c2nc(CN3CCC(C(C)(C)O)CC3)ccc2n1` [Compound 120, 2-(1-((2-(2-(1,1-difluoroethyl)-1H-benzo[d]imidazol-1-yl)-4-morpholinopyrido[3,2-d]pyrimidin-6-yl)methyl)piperidin-4-yl)propan-2-ol] gave an IC50 in experiment [1] of 2.31 nM. Also, the “IC50 p110 alpha/IC50 p110 delta” value in experiment [2] is on record as 45.
For `CC(C)(C(N)=O)N1CCN(Cc2ccc3nc(-c4c(F)ccc5[nH]ccc45)nc(N4CCOCC4)c3n2)CC1` [Compound 121, 2-(4-((2-(5-fluoro-1H-indol-4-yl)-4-morpholinopyrido[3,2-d]pyrimidin-6-yl)methyl)piperazin-1-yl)-2-methylpropanamide], in that order: 1.29 nM and 203.
For `CC(C)(O)C1CCN(Cc2ccc3nc(-c4ccc(N)nc4)nc(N4CCOCC4)c3n2)CC1` [Compound 122, 2-(1-((2-(6-aminopyridin-3-yl)-4-morpholinopyrido[3,2-d]pyrimidin-6-yl)methyl)piperidin-4-yl)propan-2-ol], in that order: 5.42 nM and 15.
The like results for `CC(C)(C(N)=O)N1CCN(Cc2ccc3nc(-c4c[nH]c5ccccc45)nc(N4CCOCC4)c3n2)CC1` [Compound 123, 2-(4-((2-(1H-indol-3-yl)-4-morpholinopyrido[3,2-d]pyrimidin-6-yl)methyl)piperazin-1-yl)-2-methylpropanamide] were, in that order, 4.48 nM and 55.
With `CC(C)(C(N)=O)N1CCN(Cc2ccc3nc(-c4ccc(N)nc4)nc(N4CCOCC4)c3n2)CC1` [Compound 124, 2-(4-((2-(6-aminopyridin-3-yl)-4-morpholinopyrido[3,2-d]pyrimidin-6-yl)methyl)piperazin-1-yl)-2-methylpropanamide], the IC50 in experiment [1] worked out at 2.03 nM. The “IC50 p110 alpha/IC50 p110 delta” value in experiment [2] worked out at 14.
`Fc1ccc2[nH]ccc2c1-c1nc(N2CCOCC2)c2nc(CN3CC(N4CCC(F)(F)CC4)C3)ccc2n1` [Compound 125, 4-(6-((3-(4,4-difluoropiperidin-1-yl)azetidin-1-yl)methyl)-2-(5-fluoro-1H-indol-4-yl)pyrido[3,2-d]pyrimidin-4-yl)morpholine] came in with an IC50 in experiment [1] of 1.52 nM. In experiment [2], the “IC50 p110 alpha/IC50 p110 delta” value was found to be 246.
The like results for `Fc1ccc2[nH]ccc2c1-c1nc(N2CCOCC2)c2nc(CN3CC(N4CCOCC4)C3)ccc2n1` [Compound 126, 4-(1-((2-(5-fluoro-1H-indol-4-yl)-4-morpholinopyrido[3,2-d]pyrimidin-6-yl)methyl)azetidin-3-yl)morpholine] were, in that order, 1.14 nM and 257.

These data come from patent publication US8563540B2, “Pyrido[3,2-d]pyrimidine PI3K delta inhibitor compounds and methods of use” (Genetech, Inc., priority 2010, dated 2013).
